Active and inactive are the calls of the source. The rule behind the calls is not given here.
Legend:
Hordeum vulgare [1] = assay: Induction of resistance to Blumeria graminis f. sp. hordei isolate W14 infection in Hordeum vulgare cv. Edamai 9 (barley) assessed as downregulation of Pathogenesis-related protein 4 gene using Contig2550_x_at as probe at 10 mg/l after 8 hr by microarray analysis relative to untreated control; format: functional
Blumeria hordei [2] = assay: Antifungal activity against Blumeria graminis f. sp. hordei isolate W14 assessed as conidial germination at 10 mg/l after 48 hr (reference value: 47.3%); format: functional
Blumeria hordei [3] = assay: Antifungal activity against Blumeria graminis f. sp. hordei isolate W14 infected barley cv. Edamai 9 assessed as disease index at 10 mg/l after 15 days (reference value: 76.5%); format: functional
Hordeum vulgare [4] = assay: Induction of resistance to Blumeria graminis f. sp. hordei isolate W14 infection in Hordeum vulgare cv. Edamai 9 (barley) assessed as downregulation of Peroxidase gene using HVSMEm0005P05r2_at as probe at 10 mg/l after 8 hr by microarray analysis relative to untreated control; format: functional
Hordeum vulgare [5] = assay: Induction of resistance to Blumeria graminis f. sp. hordei isolate W14 infection in Hordeum vulgare cv. Edamai 9 (barley) assessed as upregulation of leaf-specific thionin gene using Contig1567_x_at as probe at 10 mg/l after 8 hr by qRT-PCR analysis relative to untreated control; format: functional
Hordeum vulgare [6] = assay: Induction of resistance to Blumeria graminis f. sp. hordei isolate W14 infection in Hordeum vulgare cv. Edamai 9 (barley) assessed as upregulation of leaf-specific thionin gene using Contig1570_s_at as probe at 10 mg/l after 8 hr by microarray analysis relative to untreated control; format: functional
Hordeum vulgare [7] = assay: Induction of resistance to Blumeria graminis f. sp. hordei isolate W14 infection in Hordeum vulgare cv. Edamai 9 (barley) assessed as upregulation of leaf-specific thionin gene using Contig1570_s_at as probe at 10 mg/l after 8 hr by qRT-PCR analysis relative to untreated control; format: functional
Blumeria hordei [8] = assay: Antifungal activity against Blumeria graminis f. sp. hordei isolate W14 infected barley cv. Edamai 9 assessed as conidial germination at 10 mg/l after 15 days (reference value: 92.4%); format: functional
Hordeum vulgare [9] = assay: Induction of resistance to Blumeria graminis f. sp. hordei isolate W14 infection in Hordeum vulgare cv. Edamai 9 (barley) assessed as upregulation of leaf-specific thionin gene using Contig1567_x_at as probe at 10 mg/l after 8 hr by microarray analysis relative to untreated control; format: functional
Hordeum vulgare [10] = assay: Induction of resistance to Blumeria graminis f. sp. hordei isolate W14 infection in Hordeum vulgare cv. Edamai 9 (barley) assessed as upregulation of leaf-specific thionin gene using Contig1582_x_at as probe at 10 mg/l after 8 hr by microarray analysis relative to untreated control; format: functional
Hordeum vulgare [11] = assay: Induction of systemic resistance to Blumeria graminis f. sp. hordei isolate W14 infection in Hordeum vulgare cv. Edamai 9 (barley) assessed as decrease in colonies on leaf at 10 mg/l up to 216 hr relative to untreated-control; format: functional, organism-based
Hordeum vulgare [12] = assay: Induction of resistance to Blumeria graminis f. sp. hordei isolate W14 infection in Hordeum vulgare cv. Edamai 9 (barley) assessed as upregulation of leaf-specific thionin gene using Contig1576_at as probe at 10 mg/l after 8 hr by microarray analysis relative to untreated control; format: functional
Hordeum vulgare [13] = assay: Induction of resistance to Blumeria graminis f. sp. hordei isolate W14 infection in Hordeum vulgare cv. Edamai 9 (barley) assessed as downregulation of Oxalate oxidase gene using Contig3017_at as probe at 10 mg/l after 8 hr by microarray analysis relative to untreated control; format: functional
Hordeum vulgare [14] = assay: (§1) Induction of resistance to Blumeria graminis f. sp. hordei isolate W14 infection in Hordeum vulgare cv. Edamai 9 (barley) assessed as upregulation of stress-induced gene using Contig3426_at as probe at 10 mg/l after 8 hr by microarray analysis relative to untreated control; format: functional
Hordeum vulgare [15] = assay: as §1, with “Xyloglucan endotransglycosylase-like protein” for “stress-induced”, “Contig2669_at” for “Contig3426_at”; format: functional
Hordeum vulgare [16] = assay: Induction of resistance to Blumeria graminis f. sp. hordei isolate W14 infection in Hordeum vulgare cv. Edamai 9 (barley) assessed as downregulation of Pathogenesis-related protein gene using Contig4054_s_at as probe at 10 mg/l after 8 hr by microarray analysis relative to untreated control; format: functional
Hordeum vulgare [17] = assay: Induction of resistance to Blumeria graminis f. sp. hordei isolate W14 infection in Hordeum vulgare cv. Edamai 9 (barley) assessed as upregulation of stress-induced gene using Contig3427_at as probe at 10 mg/l after 8 hr by microarray analysis relative to untreated control; format: functional
Hordeum vulgare [18] = assay: Induction of resistance to Blumeria graminis f. sp. hordei isolate W14 infection in Hordeum vulgare cv. Edamai 9 (barley) assessed as upregulation of Phytoene synthase E1 gene using Contig13305_at as probe at 10 mg/l after 8 hr by microarray analysis relative to untreated control; format: functional
Hordeum vulgare [19] = assay: Induction of resistance to Blumeria graminis f. sp. hordei isolate W14 infection in Hordeum vulgare cv. Edamai 9 (barley) assessed as downregulation of Bsi1 protein gene using HD04G07u_s_at as probe at 10 mg/l after 8 hr by microarray analysis relative to untreated control; format: functional
Hordeum vulgare [20] = assay: Induction of localised resistance to Blumeria graminis f. sp. hordei isolate W14 infection in Hordeum vulgare cv. Edamai 9 (barley) assessed as decrease in colonies on leaf at 10 mg/l up to 216 hr relative to untreated-control; format: functional, organism-based
Hordeum vulgare [21] = assay: Induction of resistance to Blumeria graminis f. sp. hordei isolate W14 infection in Hordeum vulgare cv. Edamai 9 (barley) assessed as upregulation of leaf-specific thionin gene using Contig1580_x_at as probe at 10 mg/l after 8 hr by microarray analysis relative to untreated control; format: functional

COc1cc(O)c2c(c1)C(=O)c1cc(C)cc(O)c1C2=O [PHYSCION]
fold change (FC) (Hordeum vulgare [1]): -2.34
Activity (Blumeria hordei [2]): 56.6%
PDI (Blumeria hordei [3]): 4.4%
fold change (FC) (Hordeum vulgare [4]): -2.96
fold change (FC) (Hordeum vulgare [5]): 4.77
fold change (FC) (Hordeum vulgare [6]): 4.3
fold change (FC) (Hordeum vulgare [7]): 5.61
Activity (Blumeria hordei [8]): 4.5%
fold change (FC) (Hordeum vulgare [9]): 19.91
fold change (FC) (Hordeum vulgare [10]): 4.26
Activity (Hordeum vulgare [11]): inactive
fold change (FC) (Hordeum vulgare [12]): 9.34
fold change (FC) (Hordeum vulgare [13]): -2.87
fold change (FC) (Hordeum vulgare [14]): 3.04
fold change (FC) (Hordeum vulgare [15]): 2.44
fold change (FC) (Hordeum vulgare [16]): -2.94
fold change (FC) (Hordeum vulgare [17]): 2.41
fold change (FC) (Hordeum vulgare [18]): 2.09
fold change (FC) (Hordeum vulgare [19]): -2.77
Activity (Hordeum vulgare [20]): Active
fold change (FC) (Hordeum vulgare [21]): 4.74
